Results from US6525001B1, “Substituted pyrimidine and pyridine herbicides” (Mid-American Commercialization Corporation, priority 1997, dated 2003).

Key:
Type in all cases: in vivo
Set-up in all cases: key: 0 is no effect; 10 is complete control
[1] = tested on: purple nutsedge (Cyperus rotundus); assay: Test B pre-/postemergence
Outline: (§1)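 Compounds in a surfactant-containing, non-phytotoxic solvent blend are applied to freshly planted seed (preemergence) and, concurrently, to seedlings of 2 to 18 cm at 1–4 leaves (postemergence). Plants stay in the greenhouse twelve to sixteen days and are then scored visually from 0 (no effect) to 10 (complete control).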

[2] = tested on: wild oat (Avena fatua); assay: Test B pre-/postemergence
Outline: as §1

[3] = tested on: bamyardgrass (Echinochloa crus-galli); assay: Test B flood test; conditions: for Plant response rating, Barnyardgrass: Postemergence (flood test species)
Outline: (§2)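 Read-out is a visual response score from 0 (no effect) to 10 (complete control), assigned by comparison with untreated controls. Treatment was applied at the 2-leaf stage, and plants stayed in the greenhouse for twelve to sixteen days before scoring.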

[4] = tested on: duck salad (Heteranthera limosa); assay: Test B flood test; conditions: for Plant response rating, Ducksalad: Postemergence (flood test species)
Outline: as §2

[5] = tested on: rice (Oryza sativa); assay: Test B flood test; conditions: for Plant response rating, Rice: Postemergence (flood test species)
Outline: as §2

[6] = tested on: smallflower flatsedge (Cyperus difformis); assay: Test B flood test; conditions: for Plant response rating, S. Flatsedge: Postemergence (flood test species)
Outline: as §2

[7] = Preemergence, Rate 62 g/ha, scale of 0 to 10
[8] = Rate 62 g/ha, Postemergence (flood test)
[9] = Rate 125 g/ha, Postemergence section (flood test species)

SMILES | Nutsedge plant response rating ([1]; Rate 62 g/ha, Postemergence) | Plant response rating, Wild oats [2, 7] | Wild oats plant response rating ([2]; Rate 62 g/ha, Postemergence) | Wild oats plant response rating ([2]; Rate 125 g/ha, Postemergence) | Plant response rating, Wild oats ([2]; Rate 125 g/ha, Preemergence) | Plant response rating, Wild oats ([2]; Rate 250 g/ha, Postemergence) | Plant response rating, Wild oats ([2]; Rate 250 g/ha, Preemergence) | Plant response rating, Wild oats ([2]; Rate 500 g/ha, Preemergence) | Barnyardgrass plant response rating [3, 8] | Barnyardgrass plant response rating [3, 9] | Plant response rating, Barnyardgrass ([3]; Rate 250 g/ha) | Ducksalad plant response rating [4, 8] | Ducksalad plant response rating [4, 9] | Plant response rating, Ducksalad ([4]; Rate 250 g/ha) | Rice plant response rating [5, 8] | Rice plant response rating [5, 9] | Plant response rating, Rice ([5]; Rate 250 g/ha) | S. Flatsedge plant response rating [6, 8] | S. Flatsedge plant response rating [6, 9] | Plant response rating, S. Flatsedge ([6]; Rate 250 g/ha) | also measured
Cc1cnc(-n2cnc(C(F)(F)F)c2)nc1C(=O)c1cccc(C(F)(F)F)c1 [Compound 61] | 0 | 4 | 3 | 3 | 5 | 3 | 7 | 8 | 2 | 3 | 3 | 0 | 1 | 3 | 0 | 0 | 2 | 3 | 7 | 8 | Plant response rating, Nutsedge [1, 7]: 0; Nutsedge plant response rating ([1]; Rate 125 g/ha, Postemergence): 0; Plant response rating, Nutsedge ([1]; Rate 125 g/ha, Preemergence): 0; Plant response rating, Nutsedge ([1]; Rate 250 g/ha, Postemergence): 0; Plant response rating, Nutsedge ([1]; Rate 250 g/ha, Preemergence): 0; Plant response rating, Wild oats ([2]; Rate 500 g/ha, Postemergence): 5; Plant response rating, Barnyardgrass ([3]; Rate 500 g/ha): 4; Plant response rating, Ducksalad ([4]; Rate 500 g/ha): 5; Plant response rating, Rice ([5]; Rate 500 g/ha): 2; Plant response rating, S. Flatsedge ([6]; Rate 500 g/ha): 9
Cc1cnc(-n2ccc(C(F)(F)C(F)(F)F)n2)nc1C(=O)c1cccc(OC(F)(F)F)c1 [Compound 62] | 0 | 1 | 1 | 1 | 3 | 1 | 4 | 4 | 1 | 2 | 3 | 0 | 0 | 0 | 0 | 0 | 0 | 3 | 6 | 7 | Plant response rating, Nutsedge [1, 7]: 0; Nutsedge plant response rating ([1]; Rate 125 g/ha, Postemergence): 0; Plant response rating, Nutsedge ([1]; Rate 125 g/ha, Preemergence): 0; Plant response rating, Nutsedge ([1]; Rate 250 g/ha, Preemergence): 0; Plant response rating, Nutsedge ([1]; Rate 500 g/ha, Preemergence): 0; Plant response rating, Wild oats ([2]; Rate 500 g/ha, Postemergence): 3; Plant response rating, Barnyardgrass ([3]; Rate 500 g/ha): 4; Plant response rating, Ducksalad ([4]; Rate 500 g/ha): 2; Plant response rating, Rice ([5]; Rate 500 g/ha): 0; Plant response rating, S. Flatsedge ([6]; Rate 500 g/ha): 8
Cc1cnc(-n2cnc(C(F)(F)F)c2)nc1C(=O)c1cccc(OC(F)(F)F)c1 [Compound 63] | 0 | 3 | 3 | 2 | 3 | 2 | 5 | 8 | 1 | 3 | 3 | 0 | 0 | 2 | 0 | 0 | 1 | 4 | 7 | 8 | Plant response rating, Nutsedge [1, 7]: 0; Plant response rating, Nutsedge ([1]; Rate 125 g/ha, Preemergence): 0; Plant response rating, Nutsedge ([1]; Rate 250 g/ha, Postemergence): 0; Plant response rating, Nutsedge ([1]; Rate 500 g/ha, Preemergence): 0; Plant response rating, Wild oats ([2]; Rate 500 g/ha, Postemergence): 2; Plant response rating, Barnyardgrass ([3]; Rate 500 g/ha): 3; Plant response rating, Ducksalad ([4]; Rate 500 g/ha): 6; Plant response rating, Rice ([5]; Rate 500 g/ha): 1; Plant response rating, S. Flatsedge ([6]; Rate 500 g/ha): 9
Cc1cnc(-n2cnc(C(F)(F)F)n2)nc1C(=O)c1cccc(OC(F)(F)F)c1 [Compound 64] | 0 | 3 | 3 | 4 | 4 | 5 | 5 | 9 | 2 | 3 | 4 | 4 | 6 | 6 | 1 | 1 | 2 | 8 | 8 | 8 | Plant response rating, Nutsedge [1, 7]: 0; Nutsedge plant response rating ([1]; Rate 125 g/ha, Postemergence): 0; Plant response rating, Nutsedge ([1]; Rate 250 g/ha, Postemergence): 0; Plant response rating, Nutsedge ([1]; Rate 500 g/ha, Postemergence): 2; Plant response rating, Nutsedge ([1]; Rate 500 g/ha, Preemergence): 2; Plant response rating, Wild oats ([2]; Rate 500 g/ha, Postemergence): 7; Plant response rating, Barnyardgrass ([3]; Rate 500 g/ha): 5; Plant response rating, Ducksalad ([4]; Rate 500 g/ha): 9; Plant response rating, Rice ([5]; Rate 500 g/ha): 3; Plant response rating, S. Flatsedge ([6]; Rate 500 g/ha): 9
Cc1cnc(-n2cnc(C(F)(F)F)n2)nc1C(=O)c1cccc(C(F)(F)F)c1 [Compound 67] | 0 | 3 | 5 | 7 | 5 | 8 | 6 | 9 | 3 | 3 | 5 | 3 | 4 | 6 | 1 | 2 | 2 | 5 | 8 | 9 | Nutsedge plant response rating ([1]; Rate 125 g/ha, Postemergence): 2; Plant response rating, Nutsedge ([1]; Rate 250 g/ha, Postemergence): 4; Plant response rating, Nutsedge ([1]; Rate 500 g/ha, Preemergence): 0; Plant response rating, Wild oats ([2]; Rate 500 g/ha, Postemergence): 8; Plant response rating, Barnyardgrass ([3]; Rate 500 g/ha): 6; Plant response rating, Ducksalad ([4]; Rate 500 g/ha): 8; Plant response rating, Rice ([5]; Rate 500 g/ha): 4; Plant response rating, S. Flatsedge ([6]; Rate 500 g/ha): 9
Cc1cnc(-n2ccc(C(F)(F)C(F)(F)F)n2)nc1C(=O)c1cccc(C(F)(F)F)c1 [Compound 68] | 0 | 4 | 2 | 2 | 6 | 2 | 7 | 8 | 2 | 3 | 4 | 0 | 1 | 2 | 0 | 1 | 3 | 5 | 7 | 7 | Plant response rating, Nutsedge [1, 7]: 0; Nutsedge plant response rating ([1]; Rate 125 g/ha, Postemergence): 0; Plant response rating, Nutsedge ([1]; Rate 125 g/ha, Preemergence): 0; Plant response rating, Nutsedge ([1]; Rate 250 g/ha, Postemergence): 0; Plant response rating, Nutsedge ([1]; Rate 250 g/ha, Preemergence): 0; Plant response rating, Nutsedge ([1]; Rate 500 g/ha, Preemergence): 0; Plant response rating, Wild oats ([2]; Rate 500 g/ha, Postemergence): 3; Plant response rating, Barnyardgrass ([3]; Rate 500 g/ha): 4; Plant response rating, Ducksalad ([4]; Rate 500 g/ha): 3; Plant response rating, Rice ([5]; Rate 500 g/ha): 3; Plant response rating, S. Flatsedge ([6]; Rate 500 g/ha): 7
Cc1cnc(-c2ccc(C(F)(F)F)cc2)nc1C(=O)c1cccc(OC(F)(F)F)c1 [Compound 75] | 0 | 5 | 3 | 3 | 7 | 3 | 7 | 9 | 2 | 2 | 3 | 0 | 1 | 2 | 1 | 1 | 1 | 0 | 0 | 1 | Plant response rating, Nutsedge [1, 7]: 0; Nutsedge plant response rating ([1]; Rate 125 g/ha, Postemergence): 0; Plant response rating, Nutsedge ([1]; Rate 125 g/ha, Preemergence): 0; Plant response rating, Nutsedge ([1]; Rate 250 g/ha, Postemergence): 0; Plant response rating, Nutsedge ([1]; Rate 250 g/ha, Preemergence): 0; Plant response rating, Nutsedge ([1]; Rate 500 g/ha, Preemergence): 0
